Structures can show the parent of a compound that is named as a salt. Where two headings read alike, the source gives them in different places.
What was measured:
Haemophilus parasuis = assay: MIC against Haemophilus parasuis isolates; format: cell-based; details: for MIC: Glaesserella parasuis, 3 isolates
Description: (§1) The minimal inhibitory concentration (MIC) of valnemulin hydrochloride against recent isolates of Pasteurelia multocida, Haemophilus pleuropneumoniae and Haemophilus parasuis originating from porcine respiratory material is determined and compared with tiamulin. […] Three of the Pasteurella isolates were toxigenic strains of Pasteurella multocida. For H. pleuropneumoniae and H. parasuis, on the day before testing a single loopful of each of the pure cultures is inoculated into 10 ml of Todd & Hewitt broth (Unipath CM190) containing 1% donor calf serum and 2 mg per ml of nicotinamide adenine dinucleotide (NAD). For P. multocida, […] a single loopful of each of the pure cultures is inoculated into 10 ml of nutrient broth No. 2 (Unipath CM67) containing 1% donor calf serum. Each of the prepared broth cultures are incubated for 18 hours at 37° C. in 10% CO2. […] For each test compound, standard control cultures of Oxford Staphylococcus aureus NCTC 6571 are also set up to validate the results of the MIC tests. In each case, broth cultures set up from the control organisms are identical to those of the organisms under test. Valnemulin is a hydrochloride, tiamulin is used as the hydrogen fumarate. […] Sensitised agar (Oxoid CM409) containing lysed horse blood (Oxoid SR50) is prepared according to the manufacturer's recommendations and adjusted to pH 7.4 it necessary. […] Four replicate plates are prepared from each dilution. […] After inoculation the growth of the organisms is examined initially by eye followed by microscopic examination on a stereo zoom microscope. The MIC value is taken as the lowest concentration of test compound at which no growth can be detected at the point of inoculation on all four plates by microscopic examination.

Mycoplasma gallisepticum = assay: Challenge study, prevention of Mycoplasma gallisepticum infection; format: in vivo, male broiler chickens; details: for prevention of clinical signs and mortality: tiamulin three doses
Description: Groups of male broiler chickens are infected with a virulent strain of Mycoplasma gallisepticum (MG) and each group medicated respectively with one of the following: valnemulin (concentrations of 0.00312, 0.00625, 0.0125 and 0.025%), tiamulin (0.00625, 0.0125 and 0.025%), and tylosin (0.05%). Infection is effected on day 2 by injection of 0.1 ml of Mycoplasma gallisepticum culture containing approximately 10^6 cfu of viable organisms into each lung (Jordan, F. T. W., The Veterinary Record 127 [1990] 502) and medication is commenced within an hour of infection and continued for three consecutive days. There is also an infected untreated group and an uninfected group.

Pasteurella multocida = assay: MIC against Pasteurella multocida isolates; format: cell-based; details: for MIC: Pasteurella multocida, 10 isolates
Description: as §1

[1] = test system: Haemophilus pleuropneumoniae; assay: MIC against Haemophilus pleuropneumoniae isolates; format: cell-based; details: for MIC: Actinobacillus pleuropneumoniae, 10 isolates
Description: as §1

Serpulina hyodysenteriae = assay: MIC determination on agar, 10 S. hyodysenteriae strains; format: cell-based
Mycoplasma hyosynoviae = assay: MIC assay, 7 field isolates of Mycoplasma hyosynoviae; format: cell-based; details: for MIC: Mycoplasma, 7 field isolates
Description: Tissue samples are obtained from the lungs of pigs from various enzootic pneumonia of pigs (EPP)--affected herds. Samples are shipped on dry ice for culture. Four isolates from lung samples initially isolated for recovery of Mycoplasma hyopneumoniae were reisolated for Mycoplasma hyosynoviae after it had been noted from the lung samples submitted (re-stored at -70° C.), during culture for M. hyopneumoniae, that some samples yielded luxuriant growth of colonies having the typical morphology of Mycoplasma hyosynoviae. Three further isolates were recovered from other lung samples provided. All isolates were serologically identified by disc growth inhibition with specific rabbit antiserum raised against Mycoplasma hyosynoviae. A commerically available solid medium (Mycoplasma Experience Ltd.) is used to isolate M. hyosynoviae from lung tissue. A liquid medium (Mycoplasma Experience Ltd.) containing phenol red and arginine (pH 7.0) is used for the MIC assay.
Stock solutions of test compound are prepared at 1 mg/ml concentration in deionised water, sterilised by filtration through 0.2μ pore size membrane filters (Sartorius Minisart, N) and stored at -20° C. For use in the MIC tests the stock solutions are diluted in liquid medium to double the final concentrations required. MIC tests are carried out according to the method of Tanner and Wu, Avian Diseases 36 (1992) 714-717. Actively growing challenge cultures are prepared either from 1 ml aliquots of broth cultures stored at -70° C. or from cultures stored on agar at -70° C. The challenge cultures are diluted to give a target titre of 10^3 to 10^5 colour changing units/ml. 0.1 ml aliquots of challenge inocula are mixed with 0.1 ml aliquots of antibiotic dilution in microtitre wells. Each microtitre plate contains uninoculated media at pH 7.6 (end point control) and antibiotic-free inoculated challenge controls. All plates are sealed with adhesive film and incubated aerobically at 36° C. MICs are recorded when the colour change in the challenge control wells matches the pH of the end point control. The MIC is the lowest concentration showing no colour change.

[2] = Acute toxicity in the rat; format: in vivo
Description: The acute toxicity in the rat of the compound of formula I in hydrochloride salt form was determined with single doses of 1000 mg/kg and 2000 mg/kg orally administered to 5 male and 5 female rats per dose group. Deaths occurred within 1-8 days. The LD50 -value obtained is >1000 mg/kg p.o.

[3] = test system: weakly beta-hemolytic spirochetes; details: WBHS
[4] = tylosin 0.05%, tiamulin, valnemulin all but the lowest dose
[5] = valnemulin 0.0125 and 0.025%, tylosin 0.05%

## C=C[C@]1(C)C[C@@H](OC(=O)CSCCN(CC)CC)[C@]2(C)[C@H](C)CC[C@]3(CCC(=O)[C@H]32)[C@@H](C)[C@@H]1O [tiamulin hydrogen fumarate]
Haemophilus parasuis; 18 h, read-out: MIC mean
  MIC: 0.7 µg/mL
Haemophilus parasuis; read-out: MIC range
  MIC: 0.5 to 1 µg/mL
Mycoplasma gallisepticum; tiamulin highest dose (0.025%), tylosin 0.05%
  recovery of MG during life or at necropsy: not recovered
Mycoplasma gallisepticum; [4]
  weight gain: next but significantly less (p<0.05)
Mycoplasma gallisepticum; [5]
  prevention of clinical signs and mortality: equally satisfactory
Pasteurella multocida; 18 h, read-out: MIC mean
  MIC: 9.2 µg/mL
Pasteurella multocida; read-out: MIC range
  MIC: 4 to 16 µg/mL
[1]; 18 h, read-out: MIC mean
  MIC: 4.5 µg/mL
[1]; read-out: MIC range
  MIC: 0.125 to 16 µg/mL
Serpulina hyodysenteriae; 10 S. hyodysenteriae strains
  number of strains with MIC 0.125 μg/ml: 6
  number of strains with MIC 0.250 μg/ml: 1
  number of strains with MIC 0.500 μg/ml: 1
  number of strains with MIC 1 μg/ml: 2
Mycoplasma hyosynoviae
  MIC: 0.0025 to 0.025 µg/mL

## C=C[C@]1(C)C[C@@H](OC(=O)CSC(C)(C)CNC(=O)[C@H](N)C(C)C)[C@]2(C)[C@H](C)CC[C@]3(CCC(=O)[C@H]32)[C@@H](C)[C@@H]1O [valnemulin hydrochloride, 14-O-[1-[(R)-2-amino-3-methylbutyrylamino]-2-methylpropan-2-ylthioacetyl]mutilin]
Haemophilus parasuis; 18 h, read-out: MIC mean
  MIC: 0.25 µg/mL
Haemophilus parasuis; read-out: MIC range
  MIC: 0.25 µg/mL
Haemophilus parasuis; H. parasuis
  mean increase in activity compared with tiamulin: three fold
Mycoplasma gallisepticum; [4]
  weight gain: next but significantly less (p<0.05)
Mycoplasma gallisepticum; valnemulin 0.0125 and 0.025%
  prevention of MG infection vs reference compounds: as effective as the reference compounds
Mycoplasma gallisepticum; [5]
  prevention of clinical signs and mortality: equally satisfactory
Mycoplasma gallisepticum; valnemulin 0.0125 and 0.025%, tiamulin, tylosin 0.05%
  lesions (frequency and severity): then the two higher doses of valnemulin
Mycoplasma gallisepticum; valnemulin 2 lower doses (0.00312, 0.00625%)
  effect on lesions: less effective
Mycoplasma gallisepticum; valnemulin highest dose (0.025%)
  birds with MG isolated: only one bird
Mycoplasma gallisepticum; valnemulin lowest dose
  weight gain: lowest weight gains
Pasteurella multocida; P. multocida
  mean increase in activity compared with tiamulin: two and a half fold
Pasteurella multocida; 18 h, read-out: MIC mean
  MIC: 3.8 µg/mL
Pasteurella multocida; read-out: MIC range
  MIC: 2 to 8 µg/mL
[1]; 18 h, read-out: MIC mean
  MIC: 0.85 µg/mL
[1]; read-out: MIC range
  MIC: 0.125 to 4 µg/mL
[1]; H. pleuropneumoniae
  mean increase in activity compared with tiamulin: five and a half fold
Serpulina hyodysenteriae; 10 S. hyodysenteriae strains
  number of strains with MIC 0.0156 μg/ml: 2
  number of strains with MIC 0.0312 μg/ml: 4
  number of strains with MIC 1 μg/ml: 1
Serpulina hyodysenteriae; S. hyodysenteriae strains
  MIC times less than those of tiamulin: 2-32 times
Serpulina hyodysenteriae; all strains
  susceptibility of S. hyodysenteriae strains: highly susceptible
[2]; in vivo
  tolerability: well tolerated
[2]; in vivo, po, single dose
  LD50: > 1000 mg/kg
[2]; oral 1000 and 2000 mg/kg
  time of deaths: 1 to 8 days
Mycoplasma hyosynoviae
  MIC: 0.0001 to 0.0005 µg/mL
Mycoplasma hyosynoviae; seven field isolates
  sensitivity of isolates in words: much higher than for the other two compounds
[3]
  strains with MIC at the lowest value: 9 out of 10 strains
